From patent publication US9937192B2, “Combination therapy to treat mycobacterium diseases” (priority 2012, dated 2018)
≈ marks a conversion by molar mass, not a printed value. Where a name gives a salt, the structure may show the parent alone. Read-outs that look alike come from different tables or passages of the source.

Key:
[1] = tested on: M. tuberculosis H37Rv; experiment: Monotherapy against established TB in mice (dose-ranging activity study); type: in vivo; conditions: for Log cfu (lung) / Log Reduction: BALB/c mice, M. tuberculosis H37Rv; for Log cfu (lung): 4 weeks of treatment; for Log Reduction: 4 weeks, vs untreated control
[2] = tested on: Non-Replicating (NRP) M. tuberculosis H37Ra; experiment: Non-replicating (NRP) M. tuberculosis H37Ra (luciferase) culture assay; type: cell-based; conditions: Mycobacterium tuberculosis, 336 h, read on day 14
[3] = tested on: intracellular M. tuberculosis in THP-1 cells; experiment: microbe, parasite or virus in culture; type: cell-based; conditions: Mycobacterium tuberculosis, H37RA; for MIC: read-out: MIC, Macrophage Cells
[4] = tested on: M. tuberculosis; experiment: microbe, parasite or virus in culture; type: cell-based; conditions: for MIC: Mycobacterium tuberculosis, H37RA, read-out: MIC, Broth
[5] = tested on: M. tuberculosis H37Rv; experiment: Minimum bactericidal concentration (MBC) assay; type: cell-based; conditions: 0.125 ug/mL
[6] = Rat IV Study (pharmacokinetics); conditions: male Sprague Dawley rats, plasma analyte = label
[7] = tested on: Mycobacterium tuberculosis; experiment: Mycobacterium tuberculosis Serum Shift MIC Assay (Protocol 5); type: cell-based; conditions: ATCC 35801 / ERDMAN
Excerpt: Protocol 5. Protocol for Mycobacterium tuberculosis Serum Shift MIC Assay
Media Prep: • 1. […] It was important that all media and supplements were sterilized prior to MICs. • 2. Prepared all media below and inoculated as described in next section. Tested all compounds against Mtb using each media. • a. […] 7H9+0.2% glycerol+2 g/L dextrose+0.85 g/L NaCl+0.003 g/L catalase (0% FBS). • c. 2×7H9+0.2% glycerol+2 g/L dextrose+0.85 g/L NaCl+0.003 g/L catalase combined with equal volume Fetal Bovine Serum (50% FBS).
Inoculum Prep: • 1. Using BBL Prompt, picked 5-10 well-separated colonies and inoculated 1 ml sterile saline that came in the kit. Typically plates were two to three weeks of age when used for this assay due to the slow growth of this organism in culture. • 2. Vortexed well, then sonicated in water bath for 30 sec providing a suspension of ˜10^8 cells/ml. Actual density could be confirmed by plating out dilutions of this suspension. • 3. Prepared inoculum in each of the three media formulations by diluting the BBL Prompt suspension 1/200 (for example: transferred 0.2 ml of cells to 40 ml of medium) to obtain a starting cell density of […]. • 4. Used 100 μl cells (˜5×10^4 cells) to inoculate each microtiter well containing 1 μl of drug in DMSO (see below).
Drug Dilutions, Inoculation, MIC Determination: • 1. Control drug stocks Isoniazid and Novobiocin were prepared at 10 mM in 100% DMSO while Ciprofloxacin and Rifampin were prepared at 1 mM in 50% DMSO and 100% DMSO, respectively. Prepared dilutions—dispensed 100 μL of the stock solution into the first column of a 96-well plate. Prepared 11-step, 2-fold serial dilutions across the row for each compound by transferring 50 μl from column 1 into 50 μl of DMSO in column 2. Continued to transfer 50 μL from column 2 through column 11 while mixing and changing tips at each column. Left column 12 with DMSO only as a control. • 2. Transferred 1 μl of each dilution into an empty microtiter well prior to the addition of 100 μl of cells. The starting concentration of Isoniazid and Novobiocin was 100 μM after the dilution into medium+cells; the starting concentration of Ciprofloxacin and Rifampin was 10 μM after the dilution into medium+cells. Compound concentrations decreased in 2× steps moving across the rows of the microtiter plate. […] Measured background fluorescence at Excitation 492 nm, Emission 595 nm and returned the plate to the incubator for another 24 hours.
After 24 hours the fluorescence of each well was measured at Excitation 492 nm, Emission 595 nm.
Percent inhibition by a given compound was calculated as follows: Percent inhibition=100−([well fluorescence-average background fluorescence]/[DMSO control−average background fluorescence]×100). […]

[8] = Seven-Day Oral (Gavage) Toxicity and Toxicokinetics Study in Rats; type: in vivo, Crl:CD(SD) rats; conditions: male rats
Excerpt: Seven-Day Oral (Gavage) Toxicity and Toxicokinetics Study in Rats
Crl:CD(SD) rats were obtained from Charles River Laboratories of Stone Ridge, N.Y. The animals were laboratory bred and experimentally naïve. Rats were chosen because they are a species that is commonly used for nonclinical toxicity evaluations.
Animals received the test article or vehicle by oral gavage for 7 consecutive days and were terminated the day following completion of dosing. The first day of dosing was designated as Day 1 of the study. The animals were evaluated for changes in clinical signs, body weight, and other parameters as described below.
The vehicle and test article were administered by oral gavage once daily for 7 consecutive days at a dose volume of 10 mL/kg body weight for Group A and Groups B-D, respectively. The test article and vehicle were administered by oral gavage twice daily, approximately 8 hours apart, for 7 consecutive days at a dose volume of 10 mL/kg body weight for Group E and Group F, respectively. The actual volume administered to each animal was calculated and adjusted based on the most recent body weight of each animal.
During the treatment period, daily cageside observations were made and recorded predose and postdose (following the first dose only). The postdosing observations made during treatment occurred at the following times based on Cmax/Tmax for the two compounds from previous studies:
Prior to start of dosing, body weights were measured for randomization on Day 1. During the treatment, body weights were measured on Day 1 and Day 7. In addition, fasted body weights were measured prior to necropsy for calculation of organ/body weight ratios.
Throughout the study, food consumption was measured daily starting 3 days prior to start of dosing.
Blood samples for evaluation of hematology, coagulation, and serum chemistry parameters were collected from all animals from the retro-orbital plexus (under CO2/O2 anesthesia, for the main study animals) or jugular vein cannula (for the toxicokinetic animals) prior to necropsy. Due to residual heparin used to keep the cannulas patent for the toxicokinetic animals, coagulation samples from these rats, were not able to be analyzed. The animals were fasted overnight prior to blood collection. On the day of blood collection for clinical pathology analyses, the animals were not necropsied until after the blood was collected and the samples judged to be acceptable by the clinical pathology group.
On the 1st and 7th day of dosing, blood samples (approximately 0.5 mL/sample) were collected from the jugular vein cannula for all toxicokinetic animals at the timepoints listed below into K3EDTA-containing tubes. […] Prior to each collection, a small sample of blood (with heparin blocking solution) was removed from the cannula and discarded. A new syringe was placed on the cannula, and the protocol-required sample was taken. The syringe with the blood sample was removed, and a new syringe with saline attached to the cannula. Blood volume was replaced with an equal volume of saline and then blocking solution placed in the cannula. Each animal was returned to its cage until the next collection timepoint.
For all animals euthanized at scheduled necropsies, the kidneys, liver, and prostate gland were weighed. Following weighing, an approximate 1 gram sample of liver and kidney was weighed, transferred to Precellys 7 mL CK28 Tissue Homogenizing tubes (Cat. No. 0904-01), snap-frozen, and analyzed.
For all animals scheduled for the terminal necropsy, the kidneys, liver, and prostate were embedded in paraffin, sectioned and stained with hematoxylin and eosin for further examination by light microscopy. For Groups A, D, E, and F only, the remaining tissues listed above were embedded in paraffin, sectioned and stained with hematoxylin and eosin for further examination by light microscopy. […]

[9] = 100 mg/kg daily 5 days per week
[10] = Compound W dosed IV bolus 1 mg/kg in D5W
[11] = Compound W dosed IV bolus 5 mg/kg in D5W

## NNC(=O)c1ccncc1 [Isoniazid, isonicotinohydrazide, reference compound]
[1]; 10 mg/kg daily 5 days per week
  Log cfu (lung): 5.01
  Log Reduction: 0.99
[2]
  IC50: > 50 µg/mL
[3]
  MIC: 0.012 µg/mL (≈ 0.0875 µM)
[4]
  MIC: 0.21 µg/mL (≈ 1.53 µM)
[5]
  Log cfu: 4.28
[5]; vs untreated control
  Log Reduction: 1.85

## CCNC(=O)Nc1nc2cc(-c3cnc(C(C)(C)OP(=O)([O-])[O-])nc3)c(F)c([C@H]3CCCO3)c2[nH]1.[Na+].[Na+] [Compound W, disodium (R)-2-(5-(2-(3-ethylureido)-6-fluoro-7-(tetrahydrofuran-2-yl)-1H-benzo[d]imidazol-5-yl)pyrimidin-2-yl)propan-2-yl phosphate]
[1]; 10 mg/kg daily 5 days per week
  Log cfu (lung): 6.38
  Log Reduction: 0
[1]; 30 mg/kg daily 5 days per week
  Log cfu (lung): 5.51
  Log Reduction: 0.49
[1]; [9]
  Log cfu (lung): 5.35
  Log Reduction: 0.65
[1]; at 30 and 100 mg/kg, p<0.01 by one-way ANOVA with Dunnett's post-test
  activity compared with no treatment: superior to no treatment
[6]; [10]
  AUCextrap: 419 ng·h/mL
  Cl_obs: 46.7 mL/min/kg
  Vss_obs: 0.38 L/kg
  t½: 0.9 h
[6]; [11]
  AUCextrap: 1120 ng·h/mL
  Cl_obs: 84.6 mL/min/kg
  Vss_obs: 5.8 L/kg
  t½: 7.2 h

## CC[C@@H](CO)NCCN[C@@H](CC)CO [Ethambutol]
[3]
  MIC: 1.26 µg/mL (≈ 6.17 µM)
[4]
  MIC: 2.55 µg/mL (≈ 12.5 µM)

## CO[C@H]1/C=C/O[C@@]2(C)Oc3c(C)c(O)c4c(O)c(c(/C=N/N5CCN(C)CC5)c(O)c4c3C2=O)NC(=O)/C(C)=C\C=C\[C@H](C)C(O)[C@@H](C)[C@@H](O)[C@@H](C)[C@H](OC(C)=O)[C@@H]1C (stereo partly drawn) [Rifampin, (7S,9E,11S,12R,13S,14R,15R,16R,17S,18S,19E,21Z)-2,15,17,27,29-pentahydroxy-11-methoxy-3,7,12,14,16,18,22-heptamethyl-26-{(E)-[(4-methylpiperazin-1-yl)imino]methyl}-6,23-dioxo-8,30-dioxa-24-azatetracyclo[23.3.1.1^4.7.0^5.28]triaconta-1(28),2,4,9,19,21,25(29),26-octaen-13-yl acetate]
[1]; 10 mg/kg daily 5 days per week
  Log cfu (lung): 4.38
  Log Reduction: 1.62
[2]
  IC50: < 0.05 µg/mL
[3]
  MIC: 0.008 µg/mL
[4]
  MIC: 0.03 µg/mL

## CC(=O)NC[C@H]1CN(c2ccc(N3CCOCC3)c(F)c2)C(=O)O1 [Linezolid]
[3]
  MIC: 0.37 µg/mL (≈ 1.1 µM)
[4]
  MIC: 0.53 µg/mL (≈ 1.57 µM)

## CO[C@@H]1[C@@H](OC(N)=O)[C@@H](O)[C@H](Oc2ccc3c(O)c(NC(=O)c4ccc(O)c(CC=C(C)C)c4)c(=O)oc3c2C)OC1(C)C [Novobiocin]
[3]; THP-1, 120 h, read-out: Mtb H37Ra in THP1 Cells (IC50)
  IC50: 2.1 µg/mL (≈ 3.43 µM)
[4]
  Erdman (MIC): 61 µg/mL

## CCNC(=O)Nc1nc2cc(-c3cnc(C(C)(C)O)nc3)cc([C@H]3CCCO3)c2[nH]1 [Compound 13, methanesulfonic acid salt of 1-ethyl-3-[5-[2-(1-hydroxy-1-methyl-ethyl)pyrimidin-5-yl]-7-[(2R)-tetrahydrofuran-2-yl]-1H-benzimidazol-2-yl]urea]
[7]; M. tuberculosis Erdman ATCC 35801, read-out: MIC
  MIC: 0.045 µg/mL
[7]; M. tuberculosis Erdman ATCC 35801 with Mouse Serum
  MIC: 2 µg/mL
[8]; 7 days oral gavage
  dose levels at which no adverse toxicity was demonstrated: up to 200 mg/kg/day
[8]; 7 days oral gavage, all dose groups
  adverse observations or effects on mean body weight: No adverse observations or effects on mean body weight
[8]; any dose regimen
  histopathological findings: No test article-related histopathological findings
[8]; once a day for 7 days orally via gavage
  NOEL (No-Observable-Effect-Level): 200 mg/kg
[8]; once daily 100 or 200 mg/kg, not considered adverse
  Mean food consumption: reduced
[8]; toxicokinetics
  exposures for different dosage levels: dose related
